Test results: the supplement of paper PMC5908809

What was measured:
[1] = system: normal NK cells expanded with K562-aAPC; experiment: percent inhibition of viability; higher = more inhibition; settings: 72 h, IL-2 2.5 ng/mL
Protocol: (§1)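 Drug sensitivity and resistance testing on K562-aAPC-expanded normal NK cells: 5 concentrations (10-fold steps over a 10,000-fold range), 72 h at 37 °C, viability by CellTiter-Glo normalised to DMSO and benzethonium chloride controls; DSS from the fitted curve.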

DERL-7 (IL-2 2.5 ng/mL) [2] = experiment: as above; settings: 72 h
IMC-1 (IL-2 20 ng/mL) [3] = experiment: as above; settings: 72 h
KAI3 (IL-2 2.5 ng/mL) [4] = experiment: as above; settings: 72 h
KHYG-1 (IL-2 2.5 ng/mL) [5] = experiment: as above; settings: 72 h
NK-92 (IL-2 2.5 ng/mL) [6] = experiment: as above; settings: 72 h
NK-YS (IL-2 2.5 ng/mL) [7] = experiment: as above; settings: 72 h
NKL (IL-2 2.5 ng/mL) [8] = experiment: as above; settings: 72 h
SNK-6 (IL-2 2.5 ng/mL) [9] = experiment: as above; settings: 72 h
YT (IL-2 2.5 ng/mL) [10] = experiment: as above; settings: 72 h
[11] = system: normal primary NK cells, pool 1 (3 donors) (IL-2 2.5 ng/mL); experiment: as above; settings: 72 h
[12] = system: normal primary NK cells, pool 1 (3 donors), resting (IL-2 0 ng/mL); experiment: as above; settings: 72 h
[13] = system: normal primary NK cells, pool 2 (3 donors) (IL-2 2.5 ng/mL); experiment: as above; settings: 72 h
[14] = system: normal primary NK cells, pool 3 (3 donors) (IL-2 2.5 ng/mL); experiment: as above; settings: 72 h
[15] = system: normal NK cells expanded with K562-aAPC; experiment: drug sensitivity score (DSS) (DSS units); higher = more sensitive; extreme values may be limits of the assay; settings: 72 h; IL-2 2.5 ng/mL
Protocol: as §1

DERL-7 (IL-2 2.5 ng/mL) [16] = experiment: as above; settings: 72 h
IMC-1 (IL-2 20 ng/mL) [17] = experiment: as above; settings: 72 h
KAI3 (IL-2 2.5 ng/mL) [18] = experiment: as above; settings: 72 h
KHYG-1 (IL-2 2.5 ng/mL) [19] = experiment: as above; settings: 72 h
NK-92 (IL-2 2.5 ng/mL) [20] = experiment: as above; settings: 72 h
NK-YS (IL-2 2.5 ng/mL) [21] = experiment: as above; settings: 72 h
NKL (IL-2 2.5 ng/mL) [22] = experiment: as above; settings: 72 h
SNK-6 (IL-2 2.5 ng/mL) [23] = experiment: as above; settings: 72 h
YT (IL-2 2.5 ng/mL) [24] = experiment: as above; settings: 72 h
[25] = system: normal primary NK cells, pool 1 (3 donors) (IL-2 2.5 ng/mL); experiment: as above; settings: 72 h
[26] = system: normal primary NK cells, pool 1 (3 donors), resting (IL-2 0 ng/mL); experiment: as above; settings: 72 h
[27] = system: normal primary NK cells, pool 2 (3 donors) (IL-2 2.5 ng/mL); experiment: as above; settings: 72 h
[28] = system: normal primary NK cells, pool 3 (3 donors) (IL-2 2.5 ng/mL); experiment: as above; settings: 72 h

CNC(=O)c1cccc2cc(Oc3ccnc4cc(OCC5(N)CC5)c(OC)cc34)ccc12 [Lucitanib] (max concentration tested 10000 nM)
percent inhibition of viability [%]
Settings | 1 nM | 10 nM | 100 nM | 1000 nM | 10000 nM
DERL-7 (IL-2 2.5 ng/mL) [2] | -0.32 | -4.66 | 2.4 | -2.57 | 23.4
IMC-1 (IL-2 20 ng/mL) [3] | -4.99 | 1.11 | 1.41 | 2.72 | 0.85
KAI3 (IL-2 2.5 ng/mL) [4] | -0.3 | -0.75 | -0.45 | 11.7 | 49.6
KHYG-1 (IL-2 2.5 ng/mL) [5] | -3.19 | -3.91 | -0.83 | 10.4 | 70.4
NK-92 (IL-2 2.5 ng/mL) [6] | -12.1 | -11.8 | 3.06 | 13.7 | 83.8
NK-YS (IL-2 2.5 ng/mL) [7] | -6.67 | -4.7 | -0.96 | 9.75 | 65.5
NKL (IL-2 2.5 ng/mL) [8] | 1.05 | 4.31 | 4.24 | -3.6 | 3.06
SNK-6 (IL-2 2.5 ng/mL) [9] | -7.37 | -13.2 | -13.8 | -8.69 | 69.6
YT (IL-2 2.5 ng/mL) [10] | -5.87 | -7.33 | -6.32 | -2.96 | 58.7
[1] | -5.59 | -4.77 | -3.52 | 4.7 | 23.6
[11] | -6.86 | 10.5 | -2.99 | 8.01 | 5.53
[12] | -16.7 | 4.29 | 3.09 | 0.61 | 22.1
[13] | -3.78 | 2.2 | 2.46 | -3.23 | -5
[14] | -7.6 | 0.39 | 3.76 | -6.23 | -5.45

Settings | drug sensitivity score
DERL-7 (IL-2 2.5 ng/mL) [16] | 0.68
IMC-1 (IL-2 20 ng/mL) [17] | 0
KAI3 (IL-2 2.5 ng/mL) [18] | 4.47
KHYG-1 (IL-2 2.5 ng/mL) [19] | 5.63
NK-92 (IL-2 2.5 ng/mL) [20] | 6.93
NK-YS (IL-2 2.5 ng/mL) [21] | 5.23
NKL (IL-2 2.5 ng/mL) [22] | 0
SNK-6 (IL-2 2.5 ng/mL) [23] | 3.25
YT (IL-2 2.5 ng/mL) [24] | 2.92
[15] | 1.53
[25] | 0
[26] | 0.81
[27] | 0
[28] | 0

O=C(O)c1ccc(Nc2ncc3c(n2)-c2ccc(Cl)cc2C(c2c(F)cccc2F)=NC3)cc1 [MLN-8054] (max concentration tested 10000 nM)
percent inhibition of viability [%]
Settings | 1 nM | 10 nM | 100 nM | 1000 nM | 10000 nM
DERL-7 (IL-2 2.5 ng/mL) [2] | -1.42 | -2.27 | -2.98 | 42.2 | 63.5
IMC-1 (IL-2 20 ng/mL) [3] | 2.52 | 4.23 | 18.1 | 27.9 | 87.8
KAI3 (IL-2 2.5 ng/mL) [4] | 5.5 | 5.3 | 20.2 | 51.7 | 71.4
KHYG-1 (IL-2 2.5 ng/mL) [5] | 4.03 | 6.1 | 20 | 64.1 | 79
NK-92 (IL-2 2.5 ng/mL) [6] | 7.92 | 3.31 | 17.5 | 33.8 | 65.2
NK-YS (IL-2 2.5 ng/mL) [7] | 5.25 | 3.3 | 40.5 | 74 | 86.5
NKL (IL-2 2.5 ng/mL) [8] | 12.4 | 12.3 | 30.5 | 66.5 | 36.9
SNK-6 (IL-2 2.5 ng/mL) [9] | -1.52 | 0.61 | 53.3 | 78.6 | 81.5
YT (IL-2 2.5 ng/mL) [10] | 4.9 | 5.88 | 21 | 51.3 | 62
[1] | 0.34 | 1.46 | -1.49 | 39.7 | 57.7
[11] | -5.64 | -11.5 | -5.12 | -17.1 | 3.94
[12] | 19.2 | -7.07 | 0.26 | -14.7 | 13.3
[13] | 1.69 | -1.38 | 2.04 | -0.41 | 21.9
[14] | 5.09 | 2.04 | 1 | 3.1 | 12.9

Settings | drug sensitivity score
DERL-7 (IL-2 2.5 ng/mL) [16] | 8.47
IMC-1 (IL-2 20 ng/mL) [17] | 7.96
KAI3 (IL-2 2.5 ng/mL) [18] | 12.2
KHYG-1 (IL-2 2.5 ng/mL) [19] | 14.3
NK-92 (IL-2 2.5 ng/mL) [20] | 8.69
NK-YS (IL-2 2.5 ng/mL) [21] | 19
NKL (IL-2 2.5 ng/mL) [22] | 14
SNK-6 (IL-2 2.5 ng/mL) [23] | 21.2
YT (IL-2 2.5 ng/mL) [24] | 11.9
[15] | 7.83
[25] | 0
[26] | 0.03
[27] | 0.7
[28] | 0.29

S=c1[nH]cnc2nc[nH]c12 [Mercaptopurine] (max concentration tested 10000 nM)
percent inhibition of viability [%]
Settings | 1 nM | 10 nM | 100 nM | 1000 nM | 10000 nM
DERL-7 (IL-2 2.5 ng/mL) [2] | -4.35 | -1.44 | 0.98 | 9.85 | 47
IMC-1 (IL-2 20 ng/mL) [3] | -3.21 | -3.47 | 2.38 | 21.7 | 91.4
KAI3 (IL-2 2.5 ng/mL) [4] | -5.39 | -4.2 | -7.01 | 6.69 | 53.7
KHYG-1 (IL-2 2.5 ng/mL) [5] | -2.69 | -0.22 | 5.34 | 30 | 99.3
NK-92 (IL-2 2.5 ng/mL) [6] | -10.3 | -10.7 | 12.1 | 38.5 | 53.5
NK-YS (IL-2 2.5 ng/mL) [7] | -2.27 | -1.87 | 9.74 | 52.6 | 90.4
NKL (IL-2 2.5 ng/mL) [8] | -15.5 | 0 | -11.9 | -4.76 | 6.22
SNK-6 (IL-2 2.5 ng/mL) [9] | 11.4 | 16.1 | 38.4 | 75.4 | 94.4
YT (IL-2 2.5 ng/mL) [10] | -0.59 | -2.35 | 3.64 | 24.6 | 81.8
[1] | -5.16 | 4.06 | -1.48 | 3.65 | 11.2
[11] | -1.1 | -6.11 | -2.9 | -10.7 | 0.61
[12] | -2.87 | -18.3 | -8.34 | -34.9 | -22.3
[13] | -14.1 | -7.32 | -6.91 | -13.4 | 3.06
[14] | -16.8 | -9.02 | -3.33 | -7.89 | 8.16

Settings | drug sensitivity score
DERL-7 (IL-2 2.5 ng/mL) [16] | 4.05
IMC-1 (IL-2 20 ng/mL) [17] | 8.45
KAI3 (IL-2 2.5 ng/mL) [18] | 3.99
KHYG-1 (IL-2 2.5 ng/mL) [19] | 9.71
NK-92 (IL-2 2.5 ng/mL) [20] | 8.34
NK-YS (IL-2 2.5 ng/mL) [21] | 11.6
NKL (IL-2 2.5 ng/mL) [22] | 0
SNK-6 (IL-2 2.5 ng/mL) [23] | 19.7
YT (IL-2 2.5 ng/mL) [24] | 8.11
[15] | 0.11
[25] | 0
[26] | 0
[27] | 0
[28] | 0
